Marks after values point to notes of the source that are not given here.
Tested on: MRSA 01, MRSA 15, MRSA 16
Test: Mutational frequency evaluation, Example 1
Assay type: cell-based, Staphylococcus aureus
Details: for Resistance mutation rate at MIC × 1: tested against one strain: MRSA 01
Procedure: Adequate dilutions were plated on plates without the compound.
Viable cell growth was enumerated after 48 hours of incubation at 37° C.
Ten replicates were carried out for each strain and fusidic acid, mupirocin and retapamulin were used as controls for the MRSA 01 strain.

SMILES | Resistance mutation rate at MIC × 1 | mutational frequency at MIC×1 (text summary of Table 4)
CC(=O)O[C@H]1C[C@@]2(C)[C@@H](C[C@@H](O)[C@H]3[C@@]4(C)CC[C@@H](O)[C@@H](C)[C@@H]4CC[C@@]32C)/C1=C(\CCC=C(C)C)C(=O)O [Fusidic acid] | ≥4 × 10^−5* | 
C/C(=C\C(=O)OCCCCCCCCC(=O)O)C[C@@H]1OC[C@H](C[C@@H]2O[C@H]2[C@@H](C)[C@H](C)O)[C@@H](O)[C@H]1O [Mupirocin] | ≥4 × 10^−5* | 
O=C(Nc1ccc([N+](=O)[O-])cc1Cl)c1cc(Cl)ccc1O [Niclosamide, 5-chloro-N-(2-chloro-4-nitrophenyl)-2-hydroxybenz-amide] |  | < 4×10^−10
C=C[C@]1(C)C[C@@H](OC(=O)CS[C@@H]2C[C@H]3CC[C@@H](C2)N3C)[C@]2(C)[C@H](C)CC[C@]3(CCC(=O)[C@H]32)[C@@H](C)[C@@H]1O [Retapamulin] | ≥4 × 10^−5* | 
